Experimental data as given in patent US8497261B2, “3-aminocaprolactam compounds for treating inflammatory disorders” (Cambridge Enterprise Limited, priority 2004, dated 2013).

Key:
Stability in human serum = format: in vitro ADME; details: 37° C.
Text: As an approach to identifying such stable anlogs, various derivatives of (S)-3-(undec-10-enoyl)-aminoglutarimide have been tested for their stability in serum.

[1] = test system: chemokine-induced migration; test: Chemokine-induced migration in vitro (prior compounds); format: cell-based; details: compared with (S)-3-(undec-10-enoyl)-aminoglutarimide
[2] = cited from earlier work

Compound: C=CCCCCCCCCC(=O)[C@@H]1CCCNC1=O [(S)-3-(undec-10-enoyl)-tetrahydropyridin-2-one]
- time completely stable in human serum (Stability in human serum): at least 7 days
- potency compared with the parental molecule [1]: considerably reduced potency

Compound: CCCCC[C@H]1CC[C@H](C(=O)N[C@H]2CCCNC(=O)C2)CC1 [Example 4, (S)-3-(trans-4′-pentylcyclohexane-1-carbonyl)amino-caprolactam]
- melting point: 182 to 184 °C

Compound: c(DCys-DG1n-DIle-DTrp-DLys-DG1n-DLys-DPro-DAsp-DLeu-DCys)-NH2 [NR583.14.3]
- half-life period of clearance from blood plasma ([2]; after intravenous injection): less than 30 minutes
- oral bioavailability ([2]; in vivo, po): not orally bioavailable
